Results reported in publication PMC7872956, “Fucosidases from the human gut symbiont Ruminococcus gnavus” (Cellular and Molecular Life Sciences: CMLS, 2020).

Assays:
[1] = molecular target: T1, GH29 fucosidase E1_10125 (Mediterraneibacter gnavus, UniProt A0A6N3BKT0, D236A); assay: STD NMR binding epitope mapping
T1 construct: gene hypBA2
T1 sequence (A0A6N3BKT0 35-583 D236A): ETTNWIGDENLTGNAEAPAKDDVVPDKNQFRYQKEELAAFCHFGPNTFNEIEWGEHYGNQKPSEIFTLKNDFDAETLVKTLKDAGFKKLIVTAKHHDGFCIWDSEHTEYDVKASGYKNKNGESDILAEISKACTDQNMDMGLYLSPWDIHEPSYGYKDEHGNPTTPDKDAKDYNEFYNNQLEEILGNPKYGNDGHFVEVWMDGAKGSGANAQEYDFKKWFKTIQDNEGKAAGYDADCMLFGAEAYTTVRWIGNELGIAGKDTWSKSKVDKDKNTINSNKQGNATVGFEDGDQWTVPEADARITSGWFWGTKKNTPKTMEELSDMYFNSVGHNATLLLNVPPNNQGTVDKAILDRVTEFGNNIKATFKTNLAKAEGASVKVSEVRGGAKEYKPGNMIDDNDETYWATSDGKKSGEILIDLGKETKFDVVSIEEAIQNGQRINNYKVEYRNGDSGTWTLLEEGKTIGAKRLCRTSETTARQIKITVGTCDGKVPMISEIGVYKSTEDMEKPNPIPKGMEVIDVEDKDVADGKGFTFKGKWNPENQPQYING

[2] = molecular target: T1, GH29 fucosidase E1_10125; assay: X-ray crystal structure ([…] Å) and ITC; format: binding
[3] = molecular target: T2, GH29 fucosidase E1_10125 (Mediterraneibacter gnavus, UniProt A0A6N3BKT0, D236A); assay: ITC; also STD NMR; format: binding
T2 construct: gene hypBA2

Row | SMILES | STD NMR binding epitope mapping [1] | Kd [3] [µM] | other results
1 | C[C@@H]1O[C@@H](O[C@H]2[C@H](O[C@@H]3O[C@H](CO)[C@H](O)[C@H](O)[C@H]3O)[C@@H](CO)OC(O)[C@@H]2O)[C@@H](O)[C@H](O)[C@@H]1O (stereo partly drawn) [3FL] | The enzyme intimately recognized the three sugar residues constituting 3FL and LeA | – | –
2 | C[C@@H]1OC(O)[C@@H](O)[C@H](O)[C@@H]1O (stereo partly drawn) [Fuc, L-fucose] | – | – | Kd [2]: 21.7 µM
3 | CC(=O)N[C@H]1C(O)O[C@H](CO)[C@@H](O[C@@H]2O[C@@H](C)[C@@H](O)[C@@H](O)[C@@H]2O)[C@@H]1O[C@@H]1O[C@H](CO)[C@H](O)[C@H](O)[C@H]1O (stereo partly drawn) [LeA, Lewis A] | The enzyme intimately recognized the three sugar residues constituting 3FL and LeA | – | –
4 | CC(=O)N[C@H]1C(O)O[C@H](CO)[C@@H](O[C@@H]2O[C@H](CO)[C@H](O)[C@H](O)[C@H]2O)[C@@H]1O[C@@H]1O[C@@H](C)[C@@H](O)[C@@H](O)[C@@H]1O (stereo partly drawn) [LeX, Lewis X] | – | 51.4 ± 1.93 | –
5 | CC(=O)N[C@H]1[C@H]([C@H](O)[C@H](O)CO)O[C@@](O[C@H]2[C@@H](O)[C@@H](CO)O[C@@H](O[C@H]3[C@H](O[C@@H]4O[C@@H](C)[C@@H](O)[C@@H](O)[C@@H]4O)[C@@H](NC(C)=O)C(O)O[C@@H]3CO)[C@@H]2O)(C(=O)O)C[C@@H]1O (stereo partly drawn) [sLeX, 3′-Sialyl Lewis X] | – | 3.59 ± 0.48 | –
6 | CC(=O)N[C@H]1C(O)O[C@H](CO)[C@@H](O[C@@H]2O[C@H](CO)[C@H](O)[C@H](O[C@H]3O[C@H](CO)[C@H](O)[C@H](O)[C@H]3O)[C@H]2O)[C@@H]1O[C@@H]1O[C@@H](C)[C@@H](O)[C@@H](O)[C@@H]1O (stereo partly drawn) [αGal-LeX, α1–3Gal-Lewis X] | – | 47.1 ± 5.6 | –
